Measured values taken from ChEMBL document CHEMBL3507680, “University of Dundee, Gates Library screen for HepG2 cell viability”.

Assay: Human HepG2 cell viability assay in 384 well format
Format: toxicity, cell-based
Design: dose 125 nL, time 70.5 hour; concentration not given beside the values
Settings: HepG2 cells, read-out: Inhibition

Structure (SMILES)	cytotoxicity at 70.5 h [%]
O=C(Cn1nc2c(cc1=O)CCCC2)N[C@@H](C(=O)O)c1ccccc1	-3.48
Cc1nc(O)c2c(n1)CCN(Cc1cc(C)sc1C)CC2	23.6
Cc1cnc(C(=O)N2CCC(COCc3ccccc3)C2)cn1 (stereo not drawn)	-2.03
O=C(c1cccs1)N1CC(C(=O)N2CCCC2)C2(CCOCC2)C1 (stereo not drawn)	0.22
c1cc(-c2cnc(C3CCNCC3)cn2)n[nH]1	12.8
CS(=O)(=O)N1C[C@@H](C(=O)Nc2cnccn2)C[C@H]2OCC[C@H]21	-7.68
CS(=O)(=O)c1cccc(C(N)c2ccccc2)c1 (stereo not drawn)	-1.27
CCC(CC)CS(=O)(=O)NC(=O)C1CCCC1	26.6
Cc1cc(F)ccc1CN1CCCC(O)(CN2CCCC2)C1 (stereo not drawn)	-1.52
COC1CCN(c2ccc(F)cc2CN(C)CC(N)=O)CC1	-4.87
Cc1ccccc1CN1CCC2(CC1)CN(S(=O)(=O)c1ccccc1)C2	-6.98
CC(NC(=O)Nc1nccs1)c1cccnc1 (stereo not drawn)	-2.43
CCc1nn(-c2cc(Oc3cccc(C)c3)nc(C)n2)c(N)c1C#N	-8.17
CNC(=O)[C@H]1C[C@H]2OCC[C@H]2N(CC2CC2)C1	-3.14
CCN1C[C@@H]2[C@@H](OC)CCN(C(=O)Cc3ccsc3)[C@@H]2C1	-5.4
COc1cccc(-c2cc(NCC(=O)O)nc3[nH]ccc23)n1	15.1
Cc1noc([C@@H]2C[C@H](NC(=O)Nc3ccccc3)CN2C)n1	-1.94
CCN(CC)c1ccc(-c2ccc(C)c(S(N)(=O)=O)c2)nn1	-8.22
CCN1CCCC(O)(CNCc2ccc3c(c2)OCO3)C1 (stereo not drawn)	-10.3
CCN(CC)c1ccc(C(=O)N2CCCC(n3cncn3)C2)cn1 (stereo not drawn)	-4.12
COCCn1c(C(=O)NCC(C)C(=O)O)cc2ccccc21 (stereo not drawn)	0.983
CCS(=O)(=O)NCCCNCc1c(C)nn(C)c1N(C)C	21.5
NC(=O)c1cccc(OCC(=O)NS(=O)(=O)c2ccc3c(c2)CCC3)c1	-0.191

Structure (SMILES)	cytotoxicity at 70.5 h [%]
CC(Cc1cccc(F)c1)C(=O)NS(=O)(=O)c1ccc2c(c1)OCCO2 (stereo not drawn)	19.6
CN(C)CC1CN(Cc2nnc(C(C)(C)C)o2)CCO1 (stereo not drawn)	11.9
COc1c(C2CCCN2C(=O)c2c(C)noc2C(C)C)c(C)nn1C (stereo not drawn)	-4.7
Cc1ccc([C@@H]2CN(C(=O)c3cccnn3)C[C@H]2NC(=O)C2CC2)cc1	-8.66
Cc1cccc(N2CCN(CCNC(=O)c3ccnn3C)CC2)c1	-9.52
CCS(=O)(=O)N1CCN(C(=O)C(C)C)CC2(CC(=O)N(C)C2)C1 (stereo not drawn)	-5.47
O=C(Nc1c(N2CCCC2)cccc1N1CCCC1)c1cnsn1	-16
CC(C)CN(C)S(=O)(=O)c1ccc(Cl)cc1C#N	34.3
CSc1nc(N)c2c(n1)N=C1COC(O)=C1C2c1cccc(O)c1 (stereo not drawn)	0.964
O=C(O)CSc1nnc(-c2cn[nH]c2)n1-c1ccccc1C(F)(F)F	-3.6
CCN1CCN(Cc2c(-c3ccco3)[nH]c3ncccc23)CC1	-3.87
O=C(c1cccc(CO)n1)N1CCCC1c1nc2cc(F)ccc2[nH]1 (stereo not drawn)	16.2
CCOc1ccc(CC(=O)N2CCN(c3nccn3C)CC2)cc1	-2.2
CC(C(=O)N1CCN(c2ccc(F)cc2)CC1)n1cc(Br)cn1 (stereo not drawn)	-8.98
CC(=O)N1CCCn2nc(CNS(=O)(=O)N(C)C(C)C)cc2C1	-14.6
NC(=O)c1ccc(N2CCCCC2)c(NC(=O)c2cncc(Br)c2)c1	-7.05
Cc1ccccc1C1(C(=O)N2CCOC(C)C2)CCOCC1 (stereo not drawn)	-5.13
Cn1ncnc1-c1ccnc(NCc2ccncc2)n1	-13.8
COc1ccc(CN2C[C@@H]3COC[C@@H](CC(=O)N4CCCC4)[C@@H]3C2)cc1	-19.9
Cn1cc(CNCCNC(=O)Cc2ccccc2)c(-c2cccnc2)n1	-5.62
COCc1cccc(CNC(=O)CNc2ccccc2C(C)=O)c1	1.21
Cc1cc(CN(C)C(=O)NC2CCN(c3ncccn3)CC2)no1	-0.403
CN1CCOCC12CCN(Cc1ccoc1)CC2	-13.2

Structure (SMILES)	cytotoxicity at 70.5 h [%]
COCC(=O)N1CC[C@H]2C[C@@H](c3nnc(C4CC4)o3)O[C@@H]2C1	5.55
CN(Cc1ccc([S+](C)[O-])cc1)c1ccc(Cl)cn1 (stereo not drawn)	20.8
COCC(=O)NC1(c2cccc(C(F)(F)F)c2)CCC1	-14.5
Cc1cc2ccccc2n1CC(=O)N[C@@H](C)C(=O)O	-19.5
NC(=O)CN1CCCN(C(=O)COc2cccc(F)c2)CC1	-25.4
CN(C)C[C@@H]1CN(Cc2ccccc2C#N)C[C@@H]1CO	2.25
COCCN(Cc1ccco1)c1ncc(C#N)cc1Cl	20.3
COc1ccc(C2CCCCCN2Cc2cn(C)nc2C)cc1 (stereo not drawn)	-3.41
COCCn1ccnc1-c1[nH]cnc1C	6.67
Cc1ccc(S(=O)(=O)N2CCC(S(=O)(=O)c3nncn3C)CC2)cc1C	-6.93
Cn1cccc1C(=O)N1CCC2(CC1)CN(c1ccsc1)C(=O)CO2	-15.9
Nc1no[n+]([O-])c1C(=O)NCc1ccco1	7.08
CC(C)C1CCCN1CC(=O)NCc1ccc(OCC(N)=O)cc1 (stereo not drawn)	2.47
Cc1ccc2c(c1)C(=O)NCC1(CCN(C(=O)c3scnc3C)CC1)O2	-6.59
Cc1cnn(CC2CN(Cc3nc(-c4ccccn4)no3)CCO2)c1 (stereo not drawn)	2.23
COc1ccc(NC(=O)Nc2c(O)c3ccccc3oc2=O)cc1	-1.02
OC(CN1CCC(c2ccn[nH]2)CC1)c1cc(F)ccc1F (stereo not drawn)	-1.27
CCN1CC(CN(C)Cc2nc(-c3ccc(F)cc3F)oc2C)CC1=O (stereo not drawn)	2.47
Fc1ccc(F)c(CN2CCC(c3n[nH]c4ncccc34)CC2)c1	-7.24
CCn1ncc2c1CCCC2NCC1=Cc2ccccc2OC1 (stereo not drawn)	-12.8
CCCC(=O)n1ccn(S(=O)(=O)c2ccc(C)cc2)c1=O	-14.8
Nc1cc(N2CCCC(COc3ccc(F)cc3)C2)nc(N)n1 (stereo not drawn)	-2.71
COc1cc(CN2CCN(c3cccc(OC)c3)C(=O)C2)cc(OC)c1	-1.7

Structure (SMILES)	cytotoxicity at 70.5 h [%]
Cc1cccc(NC(C)C(=O)Nc2nccs2)c1 (stereo not drawn)	-14.6
CCCN1CCC(Nc2cc(-c3ccccc3)ccc2OC)CC1	0.639
O=C(Nc1ccccc1)C1=NOC2(CCNCC2)C1	-6.36
CCCn1nc2c(cc1=O)CN(Cc1ccccn1)CC2	0.0556
CN1C[C@@H](C(=O)NC(C)(C)C)[C@@]2(COc3ccc(F)cc3C2=O)C1	-1.75
Cc1ccccc1CN(C)CC(O)COCc1ccccc1Cl (stereo not drawn)	21.6
CN1CCN(CCc2ncnn2-c2ccc3c(c2)OCO3)CC1	22
CC(C)c1nc(CN2CCN(C(C)c3nc(C4CC4)no3)CC2)no1 (stereo not drawn)	-4.05
Cc1cc(C)nc(N2CCOC(C)(C(=O)N(C)C)C2)n1 (stereo not drawn)	-4.59
CCc1nccc(CN2CCC(CNC(=O)c3occc3C)C2)n1 (stereo not drawn)	-5.76
Cc1ccc(C)c(NC(=O)Cc2c(C)nc3c(c2C)c(=O)[nH]n3C)c1	29.5
CCc1ccc(CN2CCc3ncnc(N4CCOCC4)c3CC2)o1	-1.4
CCS(=O)(=O)N1CCC(c2nnc(Cn3cccn3)n2C2CC2)CC1	-0.619
CN(C)CC(=O)N1CCC2(CC1)Cc1ccccc1CN(C)C2=O	23.3
CNc1cc(N2CCCC2CNCc2cscn2)ncn1 (stereo not drawn)	1.05
CCc1cc(NCCNC(C)=O)nc(N2CCCC2)n1	23.3
O=S(=O)(C1CC1)N1CCC2(CC1)CN(Cc1ccccn1)CCO2	14.8
Cc1cc(C)n(CC(C)CNC(=O)N(C)Cc2ccco2)n1 (stereo not drawn)	-10.5
NC(=O)c1cc(C2CCCN(CCOc3cccc(F)c3)C2)n[nH]1 (stereo not drawn)	13
Cc1cc(NCc2ccc(N3CCNC(=O)C3)cc2)nc(C)n1	-1.91
O=C(O)[C@H]1C[C@@H](C(=O)NCc2ccncc2)CN(Cc2ccccc2)C1	-1.34
Cc1cc(=O)[nH]c(=O)n1Cc1ncc(-c2ccccc2C(=O)O)s1	-0.441
c1coc(CN2C[C@@H]3OCCN(CCN4CCCC4)[C@@H]3C2)c1	-7.43

Structure (SMILES)	cytotoxicity at 70.5 h [%]
CC1CCCN(C(=O)c2ncncc2Cl)C1 (stereo not drawn)	12.9
COCCN1C(=O)[C@]2(CC[C@@H]3CN(C(=O)NC(C)C)C[C@@H]32)N=C1C	25.4
COc1cccc(CC(C)NC(=O)NCCNC(C)=O)c1 (stereo not drawn)	-1.81
CN(C)CCN1C(=O)CCC12CCCN(C(=O)C1CC=CC1)CC2 (stereo not drawn)	-1.28
CCCc1ccc(C(=O)N2CCn3c(nnc3C(C)C)C2)cc1	-5.86
CCOCCCNC(=O)C1(C)CCC(=O)N1c1cc(OC)ccc1OC (stereo not drawn)	-2.77
Cn1nccc1C(=O)N1CCCC2(CCN(c3ccsc3)C2=O)C1 (stereo not drawn)	10.3
COc1cccc(-n2nnc(C(=O)N3CCN(C)CC3C)c2C)c1 (stereo not drawn)	56.4
O=C(NCc1nncn1-c1ccccc1)C1CCCC1	-4.48
Cc1cccc(CCC(=O)N2CCCC(c3cc(C(N)=O)[nH]n3)C2)c1 (stereo not drawn)	19
CC(=O)N1CCC(N2CCC(c3nc(C)cc(C)n3)C2)CC1 (stereo not drawn)	-3.99
CCOc1ccc(C(=O)N2CCCC2c2c(C)nn(C)c2Cl)cn1 (stereo not drawn)	-1.78
COc1cc(C)sc1C(=O)N1CCCCC1c1ccccn1 (stereo not drawn)	-16.5
Cc1nccn1-c1ccc(=O)n(CCNC(=O)c2ccccn2)n1	-6.46
CCc1nnc(NC(=O)NCCN(C)C(=O)OC(C)(C)C)s1	-9.9
CCc1cc(N2CCC(F)(F)CC2)n2nc(C)c(C)c2n1	-7.1
COc1ccccc1CN1CC[C@]2(C[C@@H](OCC(=O)N(C)C)CO2)C1	-3.75
Cc1nc(-c2ccccc2C)n(CC(=O)NC(C)C)n1	12.9
COCCn1ccc(NC(=O)Nc2cccnc2)n1	-2.62
Cn1ncc(C(=O)O)c1C(=O)Nc1nc2ccccc2s1	14.7
CCN1CCC2(CCC1=O)CN(c1ccnc(SC)n1)CCN2C (stereo not drawn)	3.52
